Experimental data from the supplement of paper PMC11061612.

How the values were obtained:
[1] = compound: CN(CC[C@H](CSC1=CC=CC=C1)NC2=C(C=C(C=C2)S(=O)(=O)NC(=O)C3=CC=C(C=C3)N4CCC(CC4)[C@H](C5=CC=CC=C5C6=CC=C(C=C6)Cl)O)S(=O)(=O)C(F)(F)F)CCO [AZD4320]; settings: max 1 µM
Method in brief: (§1)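 Cancer cell lines in 1536-well plates (7.5 μl DMEM/F12 or RPMI, 10% FBS) were held 24 hours at 37°C and 5% CO2 and then dosed for 72 hours at a final DMSO of typically 0.2%. Viability was taken from CellTiter-Glo 2.0 luminescence, scaled between blank-well and DMSO-well means. Curves were fitted as two-parameter logistic models with a non-linear mixed effects model, from which the single-agent IC50 was taken.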

[2] = compound: Cn1cnc2c(F)c(Nc3ccc(Br)cc3Cl)c(C(=O)NOCCO)cc21 [Selumetinib]; settings: max 10 µM
Method in brief: as §1

[3] = compound: COc1cccc(OCCCN)c1-c1cc(Nc2cnc(C#N)cn2)n[nH]1 [Prexasertib]; settings: max 1 µM
Method in brief: as §1

[4] = compound: COc1cc([C@@H]2c3cc4c(cc3[C@@H](O[C@@H]3O[C@@H]5CO[C@@H](C)O[C@H]5[C@H](O)[C@H]3O)[C@H]3COC(=O)[C@H]23)OCO4)cc(OC)c1O [Etoposide]; settings: max 10 µM
Method in brief: as §1

[5] = compound: CN(C)CCCOc1ccc(-c2ccc3ncc4c(c3c2)n(C2CCOCC2)c(=O)n4C)cn1 [AZD0156]; settings: max 3 µM
Method in brief: as §1

[6] = compound: C[C@@H]1COCCN1C2=NC(=NC(=C2)C3(CC3)[S@](=N)(=O)C)C4=C5C=CNC5=NC=C4 [AZD6738]; settings: max 10 µM
Method in brief: as §1

[7] = compound: NC1(c2ccc(-c3nc4ccn5c(=O)[nH]nc5c4cc3-c3ccccc3)cc2)CCC1 [MK-2206]; settings: max 10 µM
Method in brief: as §1

[8] = compound: Cc1nc(-c2cn3c(n2)-c2ccc(-c4cnn(C(C)(C)C(N)=O)c4)cc2OCC3)n(C(C)C)n1 [Taselisib]; settings: max 10 µM
Method in brief: as §1

[9] = compound: Nc1ccn([C@@H]2O[C@H](CO)[C@@H](O)C2(F)F)c(=O)n1 [Gemcitabine]; settings: max 0.3 µM
Method in brief: as §1

[10] = compound: C=CCn1c(=O)c2cnc(Nc3ccc(N4CCN(C)CC4)cc3)nc2n1-c1cccc(C(C)(C)O)n1 [AZD1775]; settings: max 3 µM
Method in brief: as §1

[11] = compound: CC(=O)c1c(C)c2cnc(Nc3ccc(N4CCNCC4)cn3)nc2n(C2CCCC2)c1=O [Palbociclib]; settings: max 10 µM
Method in brief: as §1

[12] = compound: C[C@@H](Nc1cc(F)cc(F)c1)c1cc(C(=O)N(C)C)cc2c(=O)cc(N3CCOCC3)oc12 [AZD8186]; settings: max 10 µM
Method in brief: as §1

[13] = compound: Cc1c2c(nn1C)CSCc1cc(n(C)n1)CSc1cc(c3ccccc3c1)OCCCc1c(C(=O)O)n(C)c3c-2c(Cl)ccc13 [AZD5991]; settings: max 1 µM
Method in brief: as §1

[14] = compound: COc1cccc2c1C(=O)c1c(O)c3c(c(O)c1C2=O)C[C@@](O)(C(=O)CO)C[C@@H]3O[C@H]1C[C@H](N)[C@H](O)[C@H](C)O1 [Doxorubicin]; settings: max 1 µM
Method in brief: as §1

[15] = compound: CCc1c2c(nc3ccc(O)cc13)-c1cc3c(c(=O)n1C2)COC(=O)[C@]3(O)CC [SN-38]; settings: max 0.3 µM
Method in brief: as §1

[16] = compound: CC(=O)Nc1cccc(-n2c(=O)n(C3CC3)c(=O)c3c(Nc4ccc(I)cc4F)n(C)c(=O)c(C)c32)c1 [Trametinib]; settings: max 1 µM
Method in brief: as §1

[17] = compound: COc1cc2ncnc(Nc3ccc(F)c(Cl)c3)c2cc1OCCCN1CCOCC1 [Gefitinib]; settings: max 10 µM
Method in brief: as §1

[18] = compound: Cc1cc2ncnn2cc1Nc1ncc2c(n1)n(C1CCOCC1)c(=O)n2C [AZD7648]; settings: max 10 µM
Method in brief: as §1

[19] = compound: N#Cc1cnc(Nc2cc(NC[C@H]3CNCCO3)c(C(F)(F)F)cn2)cn1 [SRA737]; settings: max 10 µM
Method in brief: as §1

[20] = compound: CC1=CN2[C@@H](C1)C=NC3=CC(=C(C=C3C2=O)OC)OCCCCCOC4=C(C=C5C(=C4)N=C[C@@H]6CC(=CN6C5=O)C)OC [SG3199]; settings: max 0.001 µM
Method in brief: as §1

[21] = compound: C[C@@H](c1ccc2nccn2c1)n1nnc2ncc(-c3cnn(C)c3)nc21 [Savolitinib]; settings: max 1 µM
Method in brief: as §1

[22] = compound: O=C(c1cc(Cc2n[nH]c(=O)c3ccccc23)ccc1F)N1CCN(C(=O)C2CC2)CC1 [Olaparib]; settings: max 10 µM
Method in brief: as §1

[23] = compound: CC(C)n1c(=O)n(C)c2cnc3cc(F)c(-c4ccc(OCCCN5CCCCC5)nc4)cc3c21 [AZD1390]; settings: max 0.3 µM
Method in brief: as §1

[24] = compound: CC1(C)CCC(CN2CCN(c3ccc(C(=O)NS(=O)(=O)c4ccc(NCC5CCOCC5)c([N+](=O)[O-])c4)c(Oc4cnc5[nH]ccc5c4)c3)CC2)=C(c2ccc(Cl)cc2)C1 [Venetoclax]; settings: max 1 µM
Method in brief: as §1

[25] = compound: C1CC(C1)(C(=O)[O-])C(=O)[O-].N.N.[Pt+2] [Carboplatin]; settings: max 10 µM
Method in brief: as §1

[26] = compound: COc1cc(Nc2ncc3c(n2)-c2ccc(Cl)cc2C(c2c(F)cccc2OC)=NC3)ccc1C(=O)O [Alisertib]; settings: max 10 µM
Method in brief: as §1

[27] = compound: O=c1[nH]cc(F)c(=O)[nH]1 [5-Fluorouracil]; settings: max 20 µM
Method in brief: as §1

[28] = compound: CS(=O)(=O)CCNCc1ccc(-c2ccc3ncnc(Nc4ccc(OCc5cccc(F)c5)c(Cl)c4)c3c2)o1 [Lapatinib]; settings: max 10 µM
Method in brief: as §1

[29] = compound: CC(=O)O[C@H]1C(=O)[C@@]2(C)[C@H]([C@H](OC(=O)c3ccccc3)[C@]3(O)C[C@H](OC(=O)[C@H](O)[C@@H](NC(=O)c4ccccc4)c4ccccc4)C(C)=C1C3(C)C)[C@]1(OC(C)=O)CO[C@@H]1C[C@@H]2O [Paclitaxel]; settings: max 3 µM
Method in brief: as §1

[30] = compound: CC1=C(C(=CC=C1)Cl)NC(=O)C2=CN=C(S2)NC3=CC(=NC(=N3)C)N4CCN(CC4)CCO [Dasatinib]; settings: max 2 µM
Method in brief: as §1

[31] = compound: O=C(Nc1ccc2[nH]nc(-c3ccncc3)c2c1)[C@@H]1CCN(CC(=O)N2CCN(c3ccc(-c4ncccn4)cc3)CC2)C1; settings: max 5 µM
Method in brief: as §1

[32] = compound: CCN(CCO)CCCOc1ccc2c(Nc3cc(CC(=O)Nc4cccc(F)c4)[nH]n3)ncnc2c1 [AZD2811]; settings: max 1 µM
Method in brief: as §1

[33] = compound: C[C@@H](Oc1cc(-c2cnn(C3CCNCC3)c2)cnc1N)c1c(Cl)ccc(F)c1Cl [Crizotinib]; settings: max 10 µM
Method in brief: as §1

[34] = compound: COc1nnc2ccc(N3CCC(c4ccc(OCCN5CCN(C)C(=O)[C@H]5C)cc4)CC3)nn12 [AZD5153]; settings: max 1 µM
Method in brief: as §1

[35] = compound: C1CN(CCC1(C(=O)N[C@@H](CCO)C2=CC=C(C=C2)Cl)N)C3=NC=NC4=C3C=CN4 [AZD5363]; settings: max 10 µM
Method in brief: as §1

Row | Cell Line | IC50, cell viability 72 h [1] [nM] | IC50, cell viability 72 h [2] [nM] | IC50, cell viability 72 h [3] [nM] | IC50, cell viability 72 h [4] [nM] | IC50, cell viability 72 h [5] [nM] | IC50, cell viability 72 h [6] [nM] | IC50, cell viability 72 h [7] [nM] | IC50, cell viability 72 h [8] [nM] | IC50, cell viability 72 h [9] [nM] | IC50, cell viability 72 h [10] [nM] | IC50, cell viability 72 h [11] [nM] | IC50, cell viability 72 h [12] [nM] | IC50, cell viability 72 h [13] [nM] | IC50, cell viability 72 h [14] [nM] | IC50, cell viability 72 h [15] [nM] | IC50, cell viability 72 h [16] [nM] | IC50, cell viability 72 h [17] [nM] | IC50, cell viability 72 h [18] [nM] | IC50, cell viability 72 h [19] [nM] | IC50, cell viability 72 h [20] [nM] | IC50, cell viability 72 h [21] [nM] | IC50, cell viability 72 h [22] [nM] | IC50, cell viability 72 h [23] [nM] | IC50, cell viability 72 h [24] [nM] | IC50, cell viability 72 h [25] [nM] | IC50, cell viability 72 h [26] [nM] | IC50, cell viability 72 h [27] [nM] | IC50, cell viability 72 h [28] [nM] | IC50, cell viability 72 h [29] [nM] | IC50, cell viability 72 h [30] [nM] | IC50, cell viability 72 h [31] [nM] | IC50, cell viability 72 h [32] [nM] | IC50, cell viability 72 h [33] [nM] | IC50, cell viability 72 h [34] [nM] | IC50, cell viability 72 h [35] [nM]
1 | BxPC-3 (Pancreatic Carcinoma) | > 1000 | > 10000 | 68.4 | > 10000 | > 3000 | > 10000 | > 10000 | > 10000 | > 300 | 1710 | > 10000 | > 10000 | > 1000 | > 1000 | > 300 | 487 | > 10000 | > 10000 | > 10000 | > 1 | > 1000 | > 10000 | > 300 | > 1000 | > 10000 | > 10000 | > 20000 | > 10000 | 602 | 1850 | 4090 | > 1000 | > 10000 | > 1000 | > 10000
2 | C-33-A (Cervical Carcinoma) | > 1000 | > 10000 | 52.8 | 909 | > 3000 | 1420 | > 10000 | > 10000 | 25.6 | 206 | > 10000 | > 10000 | > 1000 | 217 | 20.1 | 938 | 8590 | > 10000 | > 10000 | > 1 | > 1000 | > 10000 | > 300 | > 1000 | > 10000 | > 10000 | > 20000 | > 10000 | 19 | 781 | > 5000 | > 1000 | > 10000 | > 1000 | 2640
3 | COR-L88 (Small Cell Lung Carcinoma) | 110 | > 10000 | 45.9 | > 10000 | > 3000 | > 10000 | > 10000 | > 10000 | > 300 | 1760 | > 10000 | > 10000 | > 1000 | > 1000 | > 300 | > 1000 | > 10000 | > 10000 | > 10000 | > 1 | > 1000 | > 10000 | > 300 | > 1000 | > 10000 | > 10000 | > 20000 | > 10000 | > 3000 | > 2000 | > 5000 | > 1000 | > 10000 | > 1000 | > 10000
4 | CPC-N (Small Cell Lung Carcinoma) | 178 | > 10000 | 4.03 | 5130 | > 3000 | 2130 | > 10000 | 8220 | 144 | 297 | > 10000 | > 10000 | > 1000 | 887 | > 300 | > 1000 | > 10000 | > 10000 | 1760 | > 1 | > 1000 | > 10000 | > 300 | 721 | > 10000 | 670 | > 20000 | > 10000 | 21.1 | > 2000 | > 5000 | 59.8 | 6990 | 774 | > 10000
